Patent US10100058B2, “Fused heterocyclic compounds as CaM kinase inhibitors” (Gilead Sciences, Inc., priority 2016, dated 2018)

Target: recombinant CaMKIIδ (Homo sapiens (Human), UniProt Q13557)
Assay: CaMKIIδ biochemical assay (HTRF)
Details: 10 pM CaMKIIδ, 110 nM calmodulin, 12 μM ATP, 1 hour; read-out: CAMKIID-HTRF-384V2 (IC50 - nM)
Experimental: CaMKIIδ Biochemical Assay
The biochemical activity of recombinant CaMKIIδ was measured by monitoring the phosphorylation of a target peptide using Homogenous Time Resolved Fluorescence (HTRF) technology from CisBio Bioassays.

IC50	SMILES
0.26 nM	CCN(CC)[C@@H](C)CNC(=O)c1cc(OC[C@H]2CCCO2)nc(-c2cnn3ccc(-c4cccs4)nc23)c1 [Example 343, N—((S)-2-(diethylamino)propyl)-2-(((R)-tetrahydrofuran-2-yl)methoxy)-6-(5-(thiophen-2-yl)pyrazolo[1,5-a]pyrimidin-3-yl)isonicotinamide]
0.56 nM	CCN(CC)[C@@H](C)CNC(=O)c1cc(OC[C@H](C)OC)nc(-c2cnn3ccc(-c4cccs4)nc23)c1 [Example 344, N—((S)-2-(diethylamino)propyl)-2-((S)-2-methoxypropoxy)-6-(5-(thiophen-2-yl)pyrazolo[1,5-a]pyrimidin-3-yl)isonicotinamide]
1.22 nM	CCN(CC)[C@@H](C)CNC(=O)c1cc(O[C@H]2CCOC2)nc(-c2cnn3ccc(-c4cccs4)nc23)c1 [Example 345, N—((S)-2-(diethylamino)propyl)-2-(((S)-tetrahydrofuran-3-yl)oxy)-6-(5-(thiophen-2-yl)pyrazolo[1,5-a]pyrimidin-3-yl)isonicotinamide]
1.07 nM	CCN(CC)[C@@H](C)CNC(=O)c1cc(O[C@@H]2CCOC2)nc(-c2cnn3ccc(-c4cccs4)nc23)c1 [Example 346, N—((S)-2-(diethylamino)propyl)-2-(((R)-tetrahydrofuran-3-yl)oxy)-6-(5-(thiophen-2-yl)pyrazolo[1,5-a]pyrimidin-3-yl)isonicotinamide]
0.56 nM	CCN(CC)[C@@H](C)CNC(=O)c1cc(OCC2(C)COC2)nc(-c2cnn3ccc(-c4cccs4)nc23)c1 [Example 349, (S)—N-(2-(diethylamino)propyl)-2-((3-methyloxetan-3-yl)methoxy)-6-(5-(thiophen-2-yl)pyrazolo[1,5-a]pyrimidin-3-yl)isonicotinamide]
0.31 nM	CCN(CC)[C@@H](C)CNC(=O)c1cc(OCCc2cnccn2)nc(-c2cnn3ccc(-c4cccs4)nc23)c1 [Example 350, (S)—N-(2-(diethylamino)propyl)-2-(2-(pyrazin-2-yl)ethoxy)-6-(5-(thiophen-2-yl)pyrazolo[1,5-a]pyrimidin-3-yl)isonicotinamide]
0.34 nM	CCN(CC)[C@@H](C)CNC(=O)c1cc(OCCCOC)nc(-c2cnn3ccc(-c4cccs4)nc23)c1 [Example 351, (S)—N-(2-(diethylamino)propyl)-2-(3-methoxypropoxy)-6-(5-(thiophen-2-yl)pyrazolo[1,5-a]pyrimidin-3-yl)isonicotinamide]
0.21 nM	CCN(CC)[C@@H](C)CNC(=O)c1cc(OCCN2CCOCC2)nc(-c2cnn3ccc(-c4cccs4)nc23)c1 [Example 352, (S)—N-(2-(diethylamino)propyl)-2-(2-morpholinoethoxy)-6-(5-(thiophen-2-yl)pyrazolo[1,5-a]pyrimidin-3-yl)isonicotinamide]
0.1 nM	CCN(CC)[C@@H](C)CNC(=O)c1cc(OCC(C)(C)O)nc(-c2cnn3ccc(-c4cccs4)nc23)c1 [Example 353, (S)—N-(2-(diethylamino)propyl)-2-(2-hydroxy-2-methylpropoxy)-6-(5-(thiophen-2-yl)pyrazolo[1,5-a]pyrimidin-3-yl)isonicotinamide]

More lines, now with the values behind:

SMILES	IC50
CCN(CC)[C@@H](C)CNC(=O)c1cc(-c2cnn(C)c2)nc(-c2cnn3ccc(-c4cccs4)nc23)c1 [Example 331, (S)—N-(2-(diethylamino)propyl)-2-(1-methyl-1H-pyrazol-4-yl)-6-(5-(thiophen-2-yl)pyrazolo[1,5-a]pyrimidin-3-yl)isonicotinamide]	0.08 nM
CCN(CC)[C@@H](C)CNC(=O)c1cc(-c2c(C)n[nH]c2C)nc(-c2cnn3ccc(-c4cccs4)nc23)c1 [Example 332, (S)—N-(2-(diethylamino)propyl)-2-(3,5-dimethyl-1H-pyrazol-4-yl)-6-(5-(thiophen-2-yl)pyrazolo[1,5-a]pyrimidin-3-yl)isonicotinamide]	0.24 nM
CCN(CC)[C@@H](C)CNC(=O)c1cc(-c2c[nH]nc2C)nc(-c2cnn3ccc(-c4cccs4)nc23)c1 [Example 333, (S)—N-(2-(diethylamino)propyl)-2-(3-methyl-1H-pyrazol-4-yl)-6-(5-(thiophen-2-yl)pyrazolo[1,5-a]pyrimidin-3-yl)isonicotinamide]	0.22 nM
CCN(CC)[C@@H](C)CNC(=O)c1cc(-c2c[nH]nc2C(F)(F)F)nc(-c2cnn3ccc(-c4cccs4)nc23)c1 [Example 334, (S)—N-(2-(diethylamino)propyl)-2-(5-(thiophen-2-yl)pyrazolo[1,5-a]pyrimidin-3-yl)-6-(3-(trifluoromethyl)-1H-pyrazol-4-yl)isonicotinamide]	0.19 nM
CCN(CC)[C@@H](C)CNC(=O)c1cc(-c2cnoc2)nc(-c2cnn3ccc(-c4cccs4)nc23)c1 [Example 335, (S)—N-(2-(diethylamino)propyl)-2-(isoxazol-4-yl)-6-(5-(thiophen-2-yl)pyrazolo[1,5-a]pyrimidin-3-yl)isonicotinamide]	0.29 nM
CCN(CC)[C@@H](C)CNC(=O)c1cc(-c2cc[nH]n2)nc(-c2cnn3ccc(-c4cccs4)nc23)c1 [Example 336, (S)—N-(2-(diethylamino)propyl)-2-(1H-pyrazol-3-yl)-6-(5-(thiophen-2-yl)pyrazolo[1,5-a]pyrimidin-3-yl)isonicotinamide]	0.1 nM
CCN(CC)[C@@H](C)CNC(=O)c1cc(-c2cnn3ccc(-c4cccs4)nc23)nc(-c2cnn3ccc(-c4cccs4)nc23)c1 [Example 337, (S)—N-(2-(diethylamino)propyl)-2,6-bis(5-(thiophen-2-yl)pyrazolo[1,5-a]pyrimidin-3-yl)isonicotinamide]	0.33 nM
CCN(CC)[C@@H](C)CNC(=O)c1cc(-c2nccs2)nc(-c2cnn3ccc(-c4cccs4)nc23)c1 [Example 338, (S)—N-(2-(diethylamino)propyl)-2-(thiazol-2-yl)-6-(5-(thiophen-2-yl)pyrazolo[1,5-a]pyrimidin-3-yl)isonicotinamide]	0.86 nM
CCN(CC)[C@@H](C)CNC(=O)c1cc(-c2ncco2)nc(-c2cnn3ccc(-c4cccs4)nc23)c1 [Example 339, (S)—N-(2-(diethylamino)propyl)-2-(oxazol-2-yl)-6-(5-(thiophen-2-yl)pyrazolo[1,5-a]pyrimidin-3-yl)isonicotinamide]	0.35 nM
CCN(CC)[C@@H](C)CNC(=O)c1cc(-c2cn[nH]c2)nc(-c2cnn3ccc(-c4cccs4)nc23)c1 [Example 340, (S)—N-(2-(diethylamino)propyl)-2-(1H-pyrazol-4-yl)-6-(5-(thiophen-2-yl)pyrazolo[1,5-a]pyrimidin-3-yl)isonicotinamide]	0.05 nM
CCN(CC)[C@@H](C)CNC(=O)c1cc(-c2cnn(CCC#N)c2)nc(-c2cnn3ccc(-c4cccs4)nc23)c1 [Example 341, (S)-2-(1-(2-cyanoethyl)-1H-pyrazol-4-yl)-N-(2-(diethylamino)propyl)-6-(5-(thiophen-2-yl)pyrazolo[1,5-a]pyrimidin-3-yl)isonicotinamide]	0.15 nM
CCN(CC)[C@@H](C)CNC(=O)c1cc(-c2cnn(C3COC3)c2)nc(-c2cnn3ccc(-c4cccs4)nc23)c1 [Example 342, (S)—N-(2-(diethylamino)propyl)-2-(1-(oxetan-3-yl)-1H-pyrazol-4-yl)-6-(5-(thiophen-2-yl)pyrazolo[1,5-a]pyrimidin-3-yl)isonicotinamide]	0.13 nM
CCN(CC)[C@@H](C)CNC(=O)c1cc(OCc2cccnc2)nc(-c2cnn3ccc(-c4cccs4)nc23)c1 [Example 354, (S)—N-(2-(diethylamino)propyl)-2-(pyridin-3-ylmethoxy)-6-(5-(thiophen-2-yl)pyrazolo[1,5-a]pyrimidin-3-yl)isonicotinamide]	1.05 nM
CCN(CC)[C@@H](C)CNC(=O)c1cc(OCc2ccc[n+]([O-])c2)nc(-c2cnn3ccc(-c4cccs4)nc23)c1 [Example 355, (S)-3-(((4-((2-(diethylamino)propyl)carbamoyl)-6-(5-(thiophen-2-yl)pyrazolo[1,5-a]pyrimidin-3-yl)pyridin-2-yl)oxy)methyl)pyridine 1-oxide]	0.54 nM
CCC(CNC(=O)c1cc(-c2cnn3ccc(-c4cccs4)nc23)nc(N2CC[C@H]2C(=O)NC)c1)N(CC)CC (stereo partly drawn) [Example 356, N-(2-(diethylamino)butyl)-2-((S)-2-(methylcarbamoyl)azetidin-1-yl)-6-(5-(thiophen-2-yl)pyrazolo[1,5-a]pyrimidin-3-yl)isonicotinamide]	0.7 nM
CCCN(CC)[C@@H](C)CNC(=O)c1cc(-c2cnn3ccc(-c4cccs4)nc23)nc(N2CC[C@H]2C(=O)NC)c1 [Example 357, N—((S)-2-(ethyl(propyl)amino)propyl)-2-((S)-2-(methylcarbamyl)azetidin-1-yl)-6-(5-(thiophen-2-yl)pyrazolo[1,5-a]pyrimidin-3-yl)isonicotinamide]	0.27 nM
CCN(CC)[C@@H](CO)CNC(=O)c1cc(-c2cnn3ccc(-c4cccs4)nc23)nc(N2CC[C@H]2C(=O)NC)c1 [Example 358, N—((R)-2-(diethylamino)-3-hydroxypropyl)-2-((S)-2-(methylcarbamoyl)azetidin-1-yl)-6-(5-(thiophen-2-yl)pyrazolo[1,5-a]pyrimidin-3-yl)isonicotinamide]	0.46 nM
CCN(CC)[C@@H](CO)CNC(=O)c1cc(-c2cnn3ccc(-c4cccs4)nc23)nc(N2CC[C@H]2C(=O)NC)c1 [Example 359, N—((R)-2-(diethylamino)-3-hydroxypropyl)-2-((S)-2-(methylcarbamoyl)azetidin-1-yl)-6-(5-(thiophen-2-yl)pyrazolo[1,5-a]pyrimidin-3-yl)isonicotinamide]	0.35 nM
CCN(CC)CCNC(=O)c1cc(-c2cnn3ccc(-c4cccs4)nc23)nc(N2CC[C@H]2C(=O)NC)c1 [Example 360, (S)—N-(2-(diethylamino)ethyl)-2-(2-(methylcarbamoyl)azetidin-1-yl)-6-(5-(thiophen-2-yl)pyrazolo[1,5-a]pyrimidin-3-yl)isonicotinamide]	2.98 nM
